Common to all, as to assay: DTP human tumour cell line panel, 48 h
Assay [1] deals with SF-539 CNS.
For assay [2], the system named is COLO 205 colon.
Assay [3] relates to HOP-62 NSCLC.
Assay [4] deals with MALME-3M melanoma.
Assay [5] relates to NCI-H460 lung.
The test system of assay [6] is NCI-H522 lung.
Assay [7] has as its system LOX IMVI melanoma.
For assay [8], the system named is MDA-MB-435.
Assay [9] has as its system T-47D breast.
Assay [10] concerns MCF7 breast.
The subject of assay [11] is BT-549 breast.

The values below come from PubChem BioAssay (NCI).

Structures are written as SMILES. Values after ≈ are worked out from the molar mass of the structure shown. Values joined by “and” are separate entries in the source; they are usually repeats but may differ in a detail not shown here. Identical values can stand only once.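 Results reflect a 48-hour exposure of cells in 96-well plates to compound at five concentrations. GI50 marks 50% less growth. TGI: concentration producing complete growth inhibition.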

On to `O=C(Nc1c(Cl)cc([N+](=O)[O-])cc1Cl)/C(=N\Nc1cccc(Cl)c1)c1c(O)c2ccccc2oc1=O`, for which the TGI in assay [1], in assay [2], in [3], in [4], in [5] and in assay [6] was over 100 µM throughout.

Take `CCOC(=O)/C=C/c1ccccn1`: the TGI in [1], in assay [2], in assay [3], in assay [7], in [4] and in assay [5] was over 100 µM throughout. In [6], this compound yielded a TGI of over 100 µM.

With `CCN(CC)CCOc1ccc(C(=C2CCCCC2)c2ccc(OCCN(CC)CC)cc2)cc1`, the TGI stood at 2.96 µM in assay [1]; 2.7 µM in [2]; 3.27 µM in [3]; 2.69 µM in assay [7]; 3.13 µM in assay [4]; 2.94 µM in [5]. For the same compound, in [6], the TGI was found to be 3.29 µM.

Consider `CCOP(C)(=O)C(Nc1ccc(F)cc1)c1ccc(F)cc1` (stereo unspecified), for which the TGI in assay [1], in [2], in assay [8], in [3], in assay [7] and in assay [4] was over 100 µM in each case. In addition, the TGI in [9], in [5] and in [6] was over 100 µM throughout.

Consider `Cc1ccc(C2=C(c3ccccc3)C(O)(c3ccc(C)cc3)C(c3ccccc3)=C2c2ccc(C)cc2)cc1`, for which the TGI in [1], in [2], in assay [3], in [7], in [4] and in [5] was over 100 µM throughout.

`CC(=O)NC(CCCCNC(=O)N(C)N=O)C(=O)NCc1ccccc1` (stereo unspecified): the TGI in assay [1], in assay [2], in assay [3], in assay [7], in assay [4] and in assay [5] was over 100 µM throughout. The total growth inhibition concentration (TGI) in assay [6] was over 100 µM.

Consider `O=C1C[C@H]2[C@H](c3ccc(Br)cc3)[C@H]3C(=O)c4ccccc4NC(=O)[C@@H]3[C@@]2(O)c2ccccc2N1`, for which the TGI in assay [10] amounted to 77.2 µM; in assay [1] it was 54.7 µM; in assay [2], 40.2 µM; in [8], 26.9 µM; in assay [3], 49.7 µM; in assay [7], 37.1 µM. Besides, the TGI in assay [4] was 45.5 µM; in [5] it was over 100 µM; in assay [6] it was 69.3 µM.

Consider `NC(N)=Nc1nc2ccccc2[nH]1`, for which the GI50 in assay [10] was 1.05 µg/mL (≈ 6.01 µM); in assay [1], 33.7 µg/mL (≈ 192 µM); in assay [2], 61.7 µg/mL (≈ 352 µM); in [3], 43.4 µg/mL; in assay [7], 43.8 µg/mL; in assay [4] it was 47.4 µg/mL. For the same compound, the values for the GI50 in [5] and in assay [6] were 36.5 µg/mL (≈ 209 µM) and 5.66 µg/mL (≈ 32.3 µM), respectively. Besides, the TGI in assay [10] is 79.4 µg/mL; in assay [1], over 150 µg/mL; in [2], over 150 µg/mL; in assay [3], 124 µg/mL; in assay [7] it was over 150 µg/mL; in [4], 47.4 µg/mL. In addition, the TGI is over 150 µg/mL in assay [5] and 46.5 µg/mL in assay [6].

With `CCOC(=O)c1cc(-c2ccc(Cl)cc2)c([N+](=O)[O-])n1C`, the TGI in [1] is over 10 µM; in assay [8] it was over 10 µM; in assay [4], over 10 µM; in assay [11], over 10 µM; in assay [9], 6.45 µM; in [5] it was over 10 µM. Moreover, the TGI in assay [6] is over 10 µM.

`O=c1[nH]c(=O)n(C2CC(O)C(CO)O2)cc1C#Cc1cc(F)cc(F)c1` (stereo unspecified): the TGI in [1], in assay [2], in assay [3], in [7], in assay [4] and in assay [5] was over 100 µM each time. Also, the TGI in assay [6] is over 100 µM.

With `S=C1SC(c2ccc(Cl)cc2)(c2ccc(Cl)cc2)c2ccccc21`, the TGI in assay [10], in assay [1], in assay [2], in [8], in assay [3] and in assay [7] was over 100 µM each time. The concentration for total growth inhibition (TGI) in assay [4], in assay [11], in [5] and in assay [6] was over 100 µM each time.

On to `COC(=O)C(Cc1nc2ccccc2[nH]c1=O)C(=O)C(=O)Nc1ccc(OC)cc1[N+](=O)[O-]` (stereo unspecified), for which the TGI in assay [1], in [2], in assay [3], in [7], in assay [4] and in [5] was over 100 µM each time. For the same compound, the total growth inhibition concentration (TGI) in assay [6] was over 100 µM.

With `O=C(CSc1nnc(-c2ccc(N=Cc3ccc(Cl)cc3)cc2)o1)Nc1cccc(Cl)c1`, the concentration for total growth inhibition (TGI) in assay [2], in [3], in assay [7], in [4], in assay [5] and in [6] was over 100 µM each time.

Consider `CC(=O)Nc1ccc(-c2nc3ccccc3s2)cc1O`, for which the total growth inhibition concentration (TGI) in [2], in [8], in assay [3], in [7], in assay [9] and in [5] was over 100 µM each time. For the same compound, the TGI in [6] stood at 9.85 µM.

`S=C(Nc1ccccc1)N1N=C2c3ccccc3CC[C@H]2[C@@H]1c1ccccc1`: the concentration for total growth inhibition (TGI) in [1] was over 100 µM; in [3], over 100 µM; in assay [7], over 100 µM; in assay [4] it was over 100 µM; in assay [5], over 100 µM; in assay [6], 4.12 µM.

Turning to `COc1cc([C@@H]2c3cc4c(c(O)c3C[C@H]3COC(=O)[C@@H]32)OCO4)cc(OC)c1O`, the TGI in assay [10] was over 200 µM; in [2] it was 0.174 µM; in assay [3] it was over 200 µM; in assay [7], over 200 µM. The GI50 was 0.00487 µM in assay [3]; 0.00394 µM and 0.0367 µM in assay [7]; 0.00116 µM in assay [4].

As for `CSc1ccc2c(cc1=O)[C@@H](NC(=O)c1ccc(F)cc1)CCc1cc(O)c(O)c(O)c1-2`, the TGI in [1], in assay [2], in assay [3], in assay [7], in [4] and in [5] was over 100 µM throughout. Moreover, the TGI in [6] is over 100 µM.

As a reminder, the TGI is the concentration giving total growth inhibition. One may read the GI50 as the concentration at which growth is held to half of that of the control.
